Measurements from patent US20230382863A1, “MEK INHIBITORS AND USES THEREOF” (Ikena Oncology, Inc., priority 2022, published 2023).

Legend:
[1] = test system: OCI-AML-3 xenograft (NRAS Q61L); experiment: In vivo efficacy, OCI-AML-3 xenograft model; design: species or system mouse; details: OCI-AML-3 model, Day 15
Protocol: The antitumor activity of exemplary MEK inhibitor compounds is evaluated in vivo using human cell line derived xenografts (CDX) grown in immunodeficient mice. For these studies, AsPC1 (pancreatic cell line with KRAS G12D mutation), NCI-H2122 (lung cell line with KRAS G12C mutation), and 5637 (bladder cell line with CRAF amplification) models are used. In addition, HCT-116 (colorectal cell line with KRAS G13D mutation), SKM-1 (AML cell line with KRAS K117N mutation), and OCI-AML-3 (AML cell line with NRAS Q61L mutation) models are used. The tumor cell lines (AsPC-1, NCI-H2122, 5637, and HCT-116 cells) are maintained in vitro as monolayer culture in medium at 37° C. in an atmosphere of 5% CO2 in air. The tumor cell lines (SKM-1 and OCI-AML-3 cells) are maintained in vitro as a suspension in medium at 37° C. in an atmosphere of 5% CO2 in air. The tumor cells are routinely sub-cultured before confluence by trypsin-EDTA treatment, not to exceed 4-5 passages. The cells growing in an exponential growth phase are harvested for tumor inoculation. AsPC1, NCI-H2122, and OCI-AML-3 tumors are implanted into Balb/c nude mice. HCT-116 tumors are implanted into Nu/Nu mice. 5637 and SKM-1 tumors are implanted into NOG mice. Each mouse is inoculated subcutaneously on the right flank with tumor cells in a 1:1 mixture with matrigel. Tumors are allowed to grow to approximately 150-200 mm^3. At this time, mice are assigned to groups such that the mean tumor volume is the same for each treatment group. The MEK inhibitor compound treatments are administrated to the tumor-bearing mice via oral gavage. Throughout the study, mouse body weight and tumor volume are recorded. The measurement of tumor size is conducted twice weekly with a caliper and recorded. The tumor volume (mm^3) is estimated using the formula: TV=a×b^2/2, where “a” and “b” are long and short diameters of a tumor, respectively.

CRAF in complex with MEK = experiment: CRAF-MEK stabilization in cells (MEK immunoprecipitation, Western); type: cell-based; details: HCT-116 and NCI-H1666 cells, 3 nM, 4 hours
Text: (§1) The stabilization of ARAF, BRAF and CRAF in complex with MEK in MEK immunoprecipitates isolated from cellular lysates. For these studies, HCT-116 (colorectal cell line with KRAS G13D mutation), SKMEL-2 (melanoma cell line with NRAS Q61K mutation), HT-29 (colorectal cell line with BRAF Class I mutation), NCI-H1755 (lung cancer cell line with BRAF Class II mutation), and NCI-H1666 (lung cancer cell line with BRAF Class III mutation) models are used. The tumor cell lines are maintained in vitro as monolayer culture in medium at 37° C. in an atmosphere of 5% CO2 in air. Cell lines are treated with exemplary MEK inhibitors at a concentration of 3 nM for 4 hours. Cells are lysed and MEK is immunoprecipitated from the lysates overnight. Denatured immunoprecipitates are run on SDS-PAGE, transferred to nitrocellulose membranes and associated ARAF, BRAF, or CRAF are detected by Western analysis. Stabilization was defined as >1.5-fold induction of RAF-MEK interaction over vehicle control.

[2] = test system: 5637 xenograft (CRAF amplification); experiment: In vivo efficacy, 5637 xenograft model; design: species or system mouse; details: 5637 model, 3 mg/kg QD, Day 21
Protocol: (§2) The antitumor activity of exemplary MEK inhibitor compounds is evaluated in vivo using human cell line derived xenografts (CDX) grown in immunodeficient mice. For these studies, AsPC1 (pancreatic cell line with KRAS G12D mutation), NCI-H2122 (lung cell line with KRAS G12C mutation), and 5637 (bladder cell line with CRAF amplification) models are used. In addition, HCT-116 (colorectal cell line with KRAS G13D mutation), SKM-1 (AML cell line with KRAS K117N mutation), and OCI-AML-3 (AML cell line with NRAS Q61L mutation) models are used. The tumor cell lines (AsPC-1, NCI-H2122, 5637, and HCT-116 cells) are maintained in vitro as monolayer culture in medium at 37° C. in an atmosphere of 5% CO2 in air. The tumor cell lines (SKM-1 and OCI-AML-3 cells) are maintained in vitro as a suspension in medium at 37° C. in an atmosphere of 5% CO2 in air. The tumor cells are routinely sub-cultured before confluence by trypsin-EDTA treatment, not to exceed 4-5 passages. The cells growing in an exponential growth phase are harvested for tumor inoculation. AsPC1, NCI-H2122, and OCI-AML-3 tumors are implanted into Balb/c nude mice. HCT-116 tumors are implanted into Nu/Nu mice. 5637 and SKM-1 tumors are implanted into NOG mice. […] Throughout the study, mouse body weight and tumor volume are recorded. The measurement of tumor size is conducted twice weekly with a caliper and recorded. […]

[3] = test system: Phosphorylation of MEK1/2 in AsPC1 cells; experiment: 4 hour pMEK1/2 MSD Assay; type: cell-based; details: Homo sapiens; AsPC1, 4 hours; read-out: pMEK IC50
Protocol: AsPC1 cells were seeded at 10,000 cells/well overnight in 96-well plates, then treated with a 12-point dose response of compounds (Starting dose of 1000 nM and 3-fold dilution) for 4 hours. AsPC1 cells are a K-Ras mutant (G12D) pancreatic cancer cell line. Phosphorylation of MEK1/2 on residues Ser217 and Ser221 were detected using a MesoScale Discovery (MSD) assay (MSD Cat #K15129D-2). MEK1/2 phosphorylation levels were normalized to total MEK1/2 protein detected in each well on the same MSD plate. IC50 values were determined by fitting a variable slope, four parameters curve to the compound concentration to normalized Phospho-MEK1/2 relationship.

Pharmacokinetics in rat = type: in vivo; details: plasma, IV, 1 mg/kg
[4] = test system: NCI-H2122 xenograft (KRAS G12C); experiment: In vivo efficacy, NCI-H2122 xenograft model; design: species or system mouse; details: 3 mg/kg QD, Day 31
Protocol: as §2

ARAF in complex with MEK = experiment: ARAF-MEK stabilization in cells (MEK immunoprecipitation, Western); type: cell-based; details: HCT-116 and NCI-H1755 cells, 3 nM, 4 hours; stabilization = >1.5-fold over vehicle
Text: as §1

CNS(=O)(=O)Nc1cccc(Oc2c(C(=O)NC3CC3)c(Nc3ccc(I)cc3F)n(C)c(=O)c2C)c1Cl [Compound I-2, 4-(2-chloro-3-((N-methylsulfamoyl)amino)phenoxy)-N-cyclopropyl-2-((2-fluoro-4-iodophenyl)amino)-1,5-dimethyl-6-oxo-1,6-dihydropyridine-3-carboxamide]
average body weight loss ([1]; 1 mg/kg QD): 2.9%
percent TGI ([1]; 1 mg/kg QD): 94.8%
average body weight loss ([1]; 3 mg/kg QD): 7.8%
percent TGI ([1]; 3 mg/kg QD): 98.6%
percent TGI ([1]; 6 mg/kg QOD): 95.2%
weight gain ([1]; 6 mg/kg QOD): 3.3%
MEK inhibitor-induced MEK-CRAF stabilization (CRAF in complex with MEK): stabilization was observed
average body weight loss [2]: 6.8%
percent TGI [2]: 111%
IC50 [3]: < 100 nM
AUC(0-inf) (Pharmacokinetics in rat): 1080 ng·h/mL
AUC(0-t) (Pharmacokinetics in rat): 1070 ng·h/mL
clearance (Pharmacokinetics in rat): 16.6 mL/min/kg
half-life (Pharmacokinetics in rat): 4.22 h
Vd (Pharmacokinetics in rat; read-out: Vdss): 2.2 L/kg
average body weight loss [4]: 1.5%
percent TGI [4]: 104%
association of ARAF with MEK (ARAF in complex with MEK): enhanced
